≈ marks a conversion by molar mass, not a printed value.
How the values were obtained:
Assay type in all cases: functional
Bacillus subtilis = experiment: Antibacterial activity against Bacillus subtilis by microtiter plate assay
[1] = test system: Mycolicibacterium smegmatis; experiment: Antibacterial activity against Mycobacterium smegmatis by microtiter plate assay
Staphylococcus aureus = experiment: Antibacterial activity against Staphylococcus aureus by microtiter plate assay
Candida albicans = experiment: […] activity against Candida albicans by microtiter plate assay

Row | SMILES | MIC (Bacillus subtilis) [mg/L] | MIC [1] [mg/L] | MIC (Staphylococcus aureus) [mg/L] | MIC (Candida albicans) [mg/L]
1 | COc1c2ccccc2nc2occc12 [DICTAMNINE] | 100 (≈ 502 µM) | 100 (≈ 502 µM) |  | 
2 | Cn1c2ccccc2c(=O)c2c(O)cc3c(c21)CC(C(C)(O)CCl)O3 (configuration not stated) [ISOGRAVACRIDONECHLORINE] | 100 (≈ 278 µM) | 100 (≈ 278 µM) |  | 
3 | CC(O)CCCCc1ccc2c(c1)OCO2 (configuration not stated) [MOSKACHAN C] | 100 (≈ 450 µM) | 100 (≈ 450 µM) |  | 
4 | COc1ccc2nc3occc3c(OC)c2c1 [PTELEINE] | 50 (≈ 218 µM) | 50 (≈ 218 µM) | 50 (≈ 218 µM) | 50 (≈ 218 µM)
5 | COc1ccc2c(OC)c3ccoc3nc2c1OC [SKIMMIANINE] | 100 (≈ 386 µM) | 100 (≈ 386 µM) |  | 
